Several values for one entry are separate records, joined by “and”; a condition that tells them apart may be missing. Equal values may be shown once.
Assays:
HSL [1] = target: T1, HSL (Rattus norvegicus, UniProt P15304); assay: TAG assay ([3H]trioleoylglycerol cleavage); type: biochemical
T1 construct: The partially purified HSL can be stored at −70° C. for 4 to 6 weeks; from tissue; host or cells: rat epididymal fat cells (male Wistar rats)
T1 sequence (P15304 1-768 isoform P15304-2): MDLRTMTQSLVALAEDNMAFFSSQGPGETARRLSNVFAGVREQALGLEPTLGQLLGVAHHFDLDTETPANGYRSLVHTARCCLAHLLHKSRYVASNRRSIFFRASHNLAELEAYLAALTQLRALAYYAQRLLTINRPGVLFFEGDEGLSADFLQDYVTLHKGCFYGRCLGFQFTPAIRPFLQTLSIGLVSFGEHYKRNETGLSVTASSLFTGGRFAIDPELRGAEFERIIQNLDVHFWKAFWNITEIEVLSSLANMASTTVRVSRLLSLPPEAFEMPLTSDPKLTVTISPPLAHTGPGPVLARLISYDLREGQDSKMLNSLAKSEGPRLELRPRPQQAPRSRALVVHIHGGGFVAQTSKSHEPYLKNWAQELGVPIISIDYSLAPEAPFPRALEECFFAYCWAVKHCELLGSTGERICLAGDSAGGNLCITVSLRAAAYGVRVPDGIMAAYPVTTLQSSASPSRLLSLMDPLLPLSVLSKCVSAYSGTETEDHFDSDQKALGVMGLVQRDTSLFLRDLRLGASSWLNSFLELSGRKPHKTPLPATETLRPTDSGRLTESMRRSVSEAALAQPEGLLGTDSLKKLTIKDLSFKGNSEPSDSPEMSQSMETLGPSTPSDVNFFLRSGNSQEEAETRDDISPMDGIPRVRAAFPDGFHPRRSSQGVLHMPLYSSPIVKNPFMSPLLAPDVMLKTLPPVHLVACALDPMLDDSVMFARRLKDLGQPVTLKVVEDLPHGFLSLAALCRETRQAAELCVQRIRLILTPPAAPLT
Description: (§1) Isolated rat fat cells are obtained from epididymal fatty tissue from untreated male rats (Wistar, 220-250 g) by collagenase treatment according to published processes. The fat cells from 10 rats are washed three times by flotation with 50 ml each of homogenization buffer ([…], pH 7.4, 0.25 M sucrose, 1 mM ethylenediamine-N,N,N′,N′-tetraacetic acid (EDTA), 1 mM dithiothreitol (DTT), 10 μg/ml of leupeptin, 10 μg/ml of antipain, 20 μg/ml of pepstatin) and finally taken up in 10 ml of homogenization buffer. The fat cells are homogenized in a Teflon-in-glass homogenizer (Braun-Melsungen) by 10 strokes at 1500 rpm and 15° C. […]
For the preparation of the substrate, 25-50 μCi of [^3H]trioleoylglycerol (TAG)(in toluene), 6.8 μMol of unlabeled trioleoylglycerol, and 0.6 mg of phospholipids (phosphatidylcholine/phosphatidylinositol 3:1 w/v) are mixed, dried over N2, and then taken up in 2 ml of 0.1 M potassium dihydrogenphosphate/potassium phosphate buffer (KPi)(pH 7.0) by ultrasonic treatment (Branson 250, microtip, setting 1-2, 2×1 min at a 1 min interval). […] After phase separation, one equivalent of the upper phase (1 ml) is taken and the radioactivity is determined by liquid scintillation measurement.
Substances are customarily tested in four independent batches. […] The IC50 value is calculated by means of an inhibition curve using at least 10 concentrations of the test substance. […]

HSL [2] = target: T1, HSL; assay: PNPB assay; type: biochemical; conditions: Example 6, Table 6; n=5, mean±SD
Description: as §1, with “C. The homogenizate is centrifuged (Sorvall SM24 tubes, 5000 rpm, 10 min, 4° C.).” for “C.”
10 μl of p-nitrophenyl butyrate (PNPB)(2 mM in acetonitrile), 890 μl of 0.1 M KPi (pH 7.25), 0.9% NaCl, 1 mM DTT, and 100 μl of HSL (prepared as above, diluted in this buffer) are incubated at 37° C. for 10 min. […] An equivalent volume of the upper phase is then taken and the absorption is determined at 400 nm.
Substances are customarily tested in four independent batches. The inhibition of the enzymatic activity of the HSL by a test substance is determined by comparison with an uninhibited control reaction. The IC50 value is calculated by means of an inhibition curve using at least 10 concentrations of the test substance. […]

O=C(CCCCCCCCCCCNc1ccc([N+](=O)[O-])c2nonc12)OCC(O)CO (racemic) [Compound 3]
IC50 (HSL [1]): 15.3 µM and 17.3 µM | IC50 (HSL [2]): > 100 µM

— patent publication US6783949B1, “Processes for determining whether a test substance contains lipases or lipase inhibitors” (Aventis Pharma Deutschland GmbH, priority 1999, dated 2004)
